Experimental findings from patent US10538547B2, “Mangiferin-6-O-calcium salt and preparation process thereof” (CHANGZHOU DEZE MEDICAL SCIENCE CO., LTD, priority 2016, dated 2020) are described below.

Each structure is given as a SMILES string. Structures can show the parent of a compound that is named as a salt.

The nature of data set [1]: Physicochemical properties: solubility of the mangiferin-6-O-calcium salt. The source says:
The mangiferin-6-O-calcium salt has the following structural formula: […]

Data set [2] in a line: Room temperature long-term stability test. The settings on record: for Content / Morphology: 25°C±2°C, 60% RH±5% RH, sealed aluminum plastic bag. Format: physicochemical. Here is the method:
Test method: A sample of the mangiferin-6-O-calcium salt raw material was sealingly packaged with an aluminum plastic composition bag, placed at 25° C.±2° C. and 60% RH±5% RH conditions, pieces of the sample were taken at the time of 0, 3, 6, 9 and 12 months and the morphology and content thereof were tested.

A short description of data set [3]: Acceleration test (accelerated stability). Format: physicochemical. To be noted: for Content / Morphology: 40°C±2°C, 75% RH±5% RH, sealed aluminum plastic bag. Here is the method:
Test method: A sample of the mangiferin-6-O-calcium salt raw material was sealingly packaged with an aluminum plastic composition bag, placed at 40° C.±2° C. and 75% RH±5% RH conditions, pieces of the sample were taken at the time of 0, 3 and 6 months and the morphology and content thereof were tested.

Take `O=c1c2cc(O)c(O)cc2oc2cc(O)c(C3OC(CO)C(O)C(O)C3O)c(O)c12` (stereo not drawn) [mangiferin-6-O-calcium salt]: the “Solubility in diluted hydrochloric acid solution” value in data set [1] (diluted hydrochloric acid solution) is on record as “slightly soluble”. In addition, the “Solubility in hot water” value in data set [1] (hot water) was “soluble”. In addition, the Solubility in water result in data set [1] (water) is given as “slightly soluble”. The Content in data set [2] (batch 140618, 0 month) came out at 84.5%; in data set [2] (batch 140618, 3 months), 84.5%; in data set [2] (batch 140618, 6 months), 84.3%; in data set [2] (batch 140618, 9 months), 84.6%; in data set [2] (batch 140618, 12 months), 84.2%; in data set [3] (batch 140618, 0 month), 84.5%. Also, the Content in data set [3] (batch 140618, 3 months) amounted to 84.5%; in data set [3] (batch 140618, 6 months) it was 84.2%. The Morphology entry was “Light yellow-green” in data set [2] (batch 140618, 0 month); “Light yellow-green” in data set [2] (batch 140618, 3 months); “Light yellow-” in data set [2] (batch 140618, 6 months); “Light yellow-” in data set [2] (batch 140618, 9 months); “Light yellow-” in data set [2] (batch 140618, 12 months); “Light yellow-” in data set [3] (batch 140618, 0 month). Further, the Morphology result in data set [3] (batch 140618, 3 months) is listed as “Light yellow-”; in data set [3] (batch 140618, 6 months), “Light yellow-”. The “Stability conclusion, room temperature” value in data set [2] (room temperature condition for 12 months) is given as “stable properties”. Besides, the “Stability conclusion, acceleration test” value in data set [3] (acceleration test condition for 6 months) is reported as “stable properties”.
